Among the data in ChEMBL document CHEMBL1129885, “Rational design of selective thrombin inhibitors” (Bioorg Med Chem Lett, 1997) are Ki and Ratio values, retold here.

The structures appear in SMILES notation.

One test deals with Prothrombin (Bos taurus, UniProt P00735). The test is described as follows: Inhibitory effect against bovine thrombin.
In the next test the target is T1, Serine protease 1 (Bos taurus, UniProt P00760).
T1 sequence (P00760 whole entry): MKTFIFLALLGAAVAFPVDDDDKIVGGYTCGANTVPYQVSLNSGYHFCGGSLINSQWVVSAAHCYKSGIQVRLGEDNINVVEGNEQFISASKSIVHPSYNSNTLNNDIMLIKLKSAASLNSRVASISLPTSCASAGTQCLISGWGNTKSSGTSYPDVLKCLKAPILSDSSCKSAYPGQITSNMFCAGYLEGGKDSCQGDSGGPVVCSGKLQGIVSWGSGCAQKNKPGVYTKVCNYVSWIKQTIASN
The test is described as follows: Inhibitory effect of compound was measured in bovine trypsin.

A short description of test [1]: Ratio of inhibitory effect of bovine trypsin to that of bovine thrombin.

As a reminder, the Ki is a measure of affinity in units of concentration, obtained from inhibition or displacement. With `N=C(N)c1ccc(C[C@@H](NC(=O)CNS(=O)(=O)c2ccc3ccccc3c2)C(=O)N2CCCCCC2)cc1`, at Prothrombin, affinity was put at a Ki of 0.02 µM. The same measure, in the same setting: under `NN=C(N)c1ccc(C[C@@H](NC(=O)CNS(=O)(=O)c2ccc3ccccc3c2)C(=O)N2CCCCCC2)cc1` stands 2.7 µM. As to `NN=C(N)c1ccc(C[C@@H](NC(=O)CNS(=O)(=O)c2ccc3ccccc3c2)C(=O)N2CCCCC2)cc1`, the Ki on Serine protease 1 turned out to be 192 µM; at Prothrombin, 5.37 µM. With `N=C(N)c1ccc(C[C@H](NS(=O)(=O)c2ccc3cc4ccccc4cc3c2)C(=O)N2CCCCCC2)cc1`, the Ki at Prothrombin was determined as 0.05 µM.

For the molecule `CNC(=N)c1ccc(C[C@@H](NC(=O)CNS(=O)(=O)c2ccc3ccccc3c2)C(=O)N2CCCCC2)cc1`, the Ratio in test [1] is 19.

Consider `N=C(NO)c1ccc(C[C@H](NS(=O)(=O)c2ccc3ccccc3c2)C(=O)N2CCCCCC2)cc1`, for which the Ki turned out to be 316 µM on Serine protease 1 and 1.14 µM at Prothrombin. `N=C(N)c1ccc(C[C@@H](NC(=O)CNS(=O)(=O)c2ccc3ccccc3c2)C(=O)N2CCCCC2)cc1` returned a Ki at Prothrombin of 0.0065 µM. In the case of `CNC(=N)c1ccc(C[C@H](NS(=O)(=O)c2ccc3ccccc3c2)C(=O)N2CCCCCC2)cc1`, the Ratio in test [1] worked out at 12000.

With `CN=C(N)c1ccc(C[C@H](NS(=O)(=O)c2ccc3ccccc3c2)C(=O)N2CCCCCC2)cc1`, the Ki on Serine protease 1 is 545 µM; at Prothrombin, 0.0455 µM. In the case of `N/C(=N\O)c1ccc(C[C@H](NS(=O)(=O)c2ccc3ccccc3c2)C(=O)N2CCCCCC2)cc1`, the Ratio in test [1] was 277.

As for `N=C(NN)c1ccc(C[C@@H](NC(=O)CNS(=O)(=O)c2ccc3ccccc3c2)C(=O)N2CCCCC2)cc1`, the Ratio in test [1] turned out to be 36.

Take `N=C(N)c1ccc(C[C@H](NS(=O)(=O)c2ccc3ccccc3c2)C(=O)N2CCCCCC2)cc1`: the Ratio in test [1] is 166. Moreover, the Ki on Serine protease 1 amounted to 8.65 µM; at Prothrombin, 0.0524 µM. The corresponding values for `N=C(NN)c1ccc(C[C@H](NS(=O)(=O)c2ccc3ccccc3c2)C(=O)N2CCCCCC2)cc1` are 2540, 3.73 µM and 0.00147 µM. As for `N=C(NN)c1ccc(C[C@H](NS(=O)(=O)c2ccc3cc4ccccc4cc3c2)C(=O)N2CCCCCC2)cc1`, the affinity at Prothrombin, expressed as Ki, was 0.001 µM. As for `CN=C(N)c1ccc(C[C@@H](NC(=O)CNS(=O)(=O)c2ccc3ccccc3c2)C(=O)N2CCCCC2)cc1`, the Ki at Serine protease 1 turned out to be 81.5 µM; on Prothrombin it was 4.32 µM.

In the case of `CCNC(=N)c1ccc(C[C@H](NS(=O)(=O)c2ccc3ccccc3c2)C(=O)N2CCCCCC2)cc1`, the Ki on Prothrombin was found to be 13.6 µM.
